These results are taken from patent US9725418B2, “Pyrimidine compound” (Sumitomo Chemical Company, Limited, priority 2014, dated 2017).

What all share (assay type): in vivo
Assay [1] deals with cabbage moth (Plutella xylostella). Kind of assay: Test Example 1: cabbage foliar spray, cabbage moth mortality. Conditions: 120 h, 20 mL sprayed onto cabbage, second instar larvae, 25° C., after 5 days. The method, then:
(§1) A formulation of the compound of the present invention that was prepared according to Formulation Example 5 was diluted with water so that the active ingredient concentration was set to 500 ppm to prepare a testing agent solution.
Twenty (20) mL of the above-mentioned testing medicinal solution was sprayed onto a cabbage (Brassicae oleracea) in the third to fourth leaf stage. After the testing medicinal solution was dried, the aerial part of the plant was cut, and then was installed in a polyethylene cup (volume 100 mL) together with five heads of cabbage moth (Plutella xylostella) at the second instar larval stages. The cup was held at 25° C. and after 5 days, the number of surviving insects was counted and the mortality was calculated according to the following equation. Mortality (%)=(Number of dead larvae/Number of tested larvae)×100

The test system of assay [2] is tobacco cutworm (Spodoptera litura). Kind of assay: Test Example 2: artificial diet, tobacco cutworm mortality. To be noted: 144 h, 2 mL on artificial diet Insecta LF, fourth instar larvae, after 6 days. The method, then:
as §1
The bottom of the polyethylene cup having 5.5 cm diameter was matted with the same size of a filter paper. Insecta LF (manufactured by NOSAN CORPORATION), an artificial diet, was sliced to 6 mm in thickness, cut into half, and then placed on the filter paper. Then, 2 mL of the test solution was poured into the polyethylene cup. After the test solution was air-dried, 5 fourth instar larvae of tobacco cutworm (Spodoptera litura) were released into the polyethylene cup and the cup was sealed with a lid. After 6 days, the number of surviving tobacco cutworm (Spodoptera litura) was counted and the mortality was calculated according to the following equation. Mortality (%)=(Number of dead larvae/Number of tested larvae)×100

Assay [3] concerns summer fruit tortrix (Adoxophyes orana). Kind of assay: Test Example 3: artificial diet, summer fruit tortrix mortality. To be noted: 168 h, 1 mL on artificial diet SilkMate 2S, first instar larvae, after 7 days. The method, then: as §1
A filter paper having a diameter of 5.5 cm was spread on the bottom of a polyethylene cup having a diameter of 5.5 cm. SilkMate 2S (manufactured by NOSAN CORPORATION), an artificial diet, was sliced to 2 mm in thickness and then placed on the filter paper. Then, 1 mL of the test solution (500 ppm) was poured into the polyethylene cup. After the test solution was air-dried, the filter paper having a diameter of 5.5 cm was put on the artificial diet, and 30 first instar larvae of summer fruit tortrix (Adoxophyes orana) were released on the filter paper, and the cup was sealed with a lid. After 7 days, the number of surviving summer fruit tortrix was counted and mortality was calculated according to the following equation. Mortality (%)=(Number of dead larvae/Number of tested larvae)×100

Assay [4] deals with rice planthopper (Nilaparvata lugens). Briefly: Test Example 4: rice seedling spray, rice planthopper controlling value. To be noted: 500 ppm, 10 mL sprayed on rice seedling; three to four instar larvae; 25° C.; after 6 days. As for the experimental part:
(§2) A formulation of the compound of the present invention that was prepared according to Formulation Example 5 was diluted with water so that the active ingredient concentration was set to 500 ppm to prepare a testing agent solution. Rice seedling (on the developmental stage of the second true leaf) was planted in a polyethylene cup, and the above-mentioned test solutions 10 mL were sprayed. After the test solution was air-dried, twenty (20) heads of three to four instar larvae of rice planthopper (Nilaparvata lugens) were released and the plants were held in a greenhouse at 25° C. After 6 days, the number of the surviving insects that were parasitic on the leaves of the rice was examined and the controlling value was calculated by the following equation. Controlling value (%)={1−(Cb×Tai)/(Cai×Tb)}×100 wherein the symbols in the formula represent the following descriptions. Cb: Number of the insects before treatment in untreated area; Cai: Number of the surviving parasitic insects at the time of the investigation in untreated area; Tb: Number of the insects before treatment in treated area; Tai: Number of the surviving parasitic insects at the time of the investigation in treated area;

Assay [5] shares this test system. Briefly: Test Example 5: rice seedling plant foot irrigation, rice planthopper controlling value. Conditions: 500 ppm, 5 mL irrigated into plant foot of rice seedling; larvae released after 7 days; counted after 6 days. As for the experimental part: as §2, with “solutions 5” for “solutions 10”, “were irrigated into” for “were sprayed. After”, “the plant foot, and the plants were held at 25° C. in a greenhouse for 7 days. Twenty” for “the test solution was air-dried, twenty”

Assay [6] concerns cotton aphid (Aphis gossypii). Briefly: Test Example 6: cucumber seedling spray, cotton aphid controlling value. To be noted: 500 ppm, 20 mL sprayed on cucumber seedling; 6 days post the spraying. As for the experimental part:
A formulation of the compound of the present invention that was prepared according to Formulation Example 5 was diluted with water so that the active ingredient concentration was set to 500 ppm to prepare a testing agent solution. Cucumber seedling on the developmental stage of the first true leaf) was planted in a plastic cup, and about 30 heads of cotton aphid (Aphis gossypii) were released onto the leaves of the cucumber and allowed to stand for 1 day. The above-mentioned test solutions 20 mL were sprayed into the seedling. At 6 days post the spraying, the number of the surviving insects that were parasitic on the leaves of the cucumber was examined and the controlling value was calculated by the following equation. Controlling value (%)={1−(Cb×Tai)/(Cai×Tb)}×100 wherein the symbols in the formula represent the following descriptions. Cb: Number of the insects before treatment in untreated area; Cai: Number of the surviving parasitic insects at the time of the investigation in untreated area; Tb: Number of the insects before treatment in treated area; Tai: Number of the surviving parasitic insects at the time of the investigation in treated area;

The subject of assay [7] is cotton aphid (Aphis gossypii). Kind of assay: Test Example 7: cucumber root soaking, cotton aphid controlling value. Conditions: 500 ppm, cucumber root soaked in 5 mL; inoculated one day after treatment; 7 days post the inoculation. The method, then: as §1
Soils were washed off from the cucumber seedlings (on the developmental stage of the first true leaf). The root of the cucumber seedlings was soaked in the above-mentioned test solutions 5 mL, and at one day after the treatment, thirty heads of cotton aphid (Aphis gossypii) (all stages of life) were inoculated onto the leaves of the cucumber. At 7 days post the inoculation, the number of the surviving insets that were parasitic on the leaves of the cucumber was examined, and the controlling value was calculated by the following equation. Controlling value (%)={1−(Cb×Tai)/(Cai×Tb)}×100 wherein the symbols in the formula represent the following descriptions.
Cb: Number of the insects before treatment in untreated area;
Cai: Number of the surviving parasitic insects at the time of the investigation in untreated area;
Tb: Number of the insects before treatment in treated area;
Tai: Number of the surviving parasitic insects at the time of the investigation in treated area;

The subject of assay [8] is two spotted spider mites (Tetranychus urticae). Briefly: Test Example 8: kidney bean spray, two spotted spider mite controlling value. To be noted: 500 ppm, sprayed on kidney beans; female adults; 25° C.; 13 days post the treatment. As for the experimental part:
as §1
Forty (40) heads of female adult of two spotted spider mites (Tetranychus urticae) were released onto kidney beans (immediately after the development of the primary leaf). Next day, the above-mentioned test solutions were sprayed with a spray gun in the dripping amount of the chemical solution. The plants were placed in a thermostatic breeding room (25° C.), and at 13 days post the treatment, the number of the surviving insects was examined, and the controlling value was calculated by the following equation. Controlling value (%)={1−(Number of the surviving female adult insects in treated area}/(Number of the surviving female adult insects in untreated area)×100

The test system of assay [9] is housefly (Musca domestica). Kind of assay: Test Example 9: filter paper with sucrose bait, housefly mortality. Conditions: 0.7 mL on filter paper, female adults, after 24 hours, read-out: Mortality of insects. The method, then:
(§3) A Formulation of the compound of the present invention that was prepared according to Formulation Example 5 was diluted with water so that the active ingredient concentration was set to 500 ppm to prepare a testing agent solution.
The bottom of the polyethylene cup having 5.5 cm diameter was matted with the same size of a filter paper, and 0.7 mL of the above-mentioned testing agent solution was added dropwise to the filter, and 30 mg of sucrose as bait was placed in the cup uniformly. Ten (10) heads of female adult housefly (Musca domestica) were released into the polyethylene cup and the cup was covered with the lid. After 24 hours, the life and death of housefly was examined, and the number of died insects was counted and the mortality of insects was calculated by the following equation. Mortality of insects (%)=(Number of dead insects/Number of tested insects)×100

Assay [10] has as its system common house mosquito (Culex pipiens pollens). Briefly: Test Example 10: larvae in treated water, common house mosquito mortality. To be noted: active ingredient concentration of 3.5 ppm in water, final instar larvae, after 24 hours, read-out: Mortality of insects. As for the experimental part:
as §3
The above-mentioned testing agent solution 0.7 mL was added to 100 mL of ion-exchange water (the active ingredient concentration of 3.5 ppm). Twenty (20) heads of the final instar larvae of common house mosquito (Culex pipiens pollens) was released onto the above-mentioned solution. After 24 hours, the life and death of common house mosquito was examined, and the number of died insects was counted and the mortality of insects was calculated by the following equation. Mortality of insects (%)=(Number of dead insects)/(Number of tested insects)×100

The subject of assay [11] is African malaria mosquito (Anopheles gambiae). Briefly: Test Example 11: topical application, African malaria mosquito mortality. To be noted: 48 h, 167 ppm in acetone, 0.3 μL topically applied to pronotum of female adults, two days post the topical application, read-out: Mortality of insects. As for the experimental part:
Ten (10) mg of the compound of the present invention was dissolved into 3 mL of acetone. Further the agent solution was diluted with acetone to twenty times to prepare the testing agent solution (the active ingredient concentration 167 ppm). African malaria mosquito (Anopheles gambiae) adults were subjected to an anesthetic treatment with carbon dioxide gas, and then each of 0.3 μL of the above-mentioned testing agent solution was topically applied to a pronotum of a female insect. A test was carried out 10 heads per group, and after the topical application, the insects were transferred to a cup, and fed with 5% sugar solution. At two days post the topical application, the life and death of African malaria mosquito was examined, and the mortality of insects was calculated by the following equation. Mortality of insects (%)=(Number of dead insects)/(Number of tested insects)×100

For `CCc1ncnc(NCCc2ccc(C(F)(F)F)cc2)c1Cl` [compound of the present invention], the mortality at 500 ppm in assay [1] was no less than 80%; in assay [2] it was no less than 80%; in assay [3] it was no less than 90%; in assay [9], 100%. In addition, the Controlling value in assay [4], in assay [5], in assay [6], in assay [7] and in assay [8] was no less than 90% throughout. Further, the mortality at 3.5 ppm in assay [10] was no less than 90%. In addition, in assay [11], the mortality at 167 ppm is no less than 90%.
